Results from patent US9968614B2, “Aprepitant injectable formulations” (InnoPharma, Inc., priority 2012, dated 2018).
Read-outs that look alike come from different tables or passages of the source. Blank lines part the entries; values can stand above or below the compound they belong to.

How the values were obtained:
[1] = Solubility of aprepitant in ethanol with the balance water; type: physicochemical
Excerpt: Thus, while the above approaches using complexing agents and/or co-solvents led to a soluble form of aprepitant in at least some instances, concentration of aprepitant is relatively low, and aprepitant tends to precipitate out upon further dilution. As is already known in the art, solubility of aprepitant increases exponentially with increasing concentration of ethanol as shown in Table 1 in the background section. Moreover, maximum allowed concentrations of ethanol in a drug formulation are typically at or below 49 volume %. […] Moreover, and as already noted above, an ethanol/water solvent system is not suitable for injection as aprepitant will rapidly precipitate upon dilution at the injection site.

[2] = Solubility of aprepitant in aqueous surfactant solutions; type: physicochemical; settings: water alone as solvent
Excerpt: However, in a typical injectable formulation at Polysorbate 80 concentration of 10% w/v, it would require 7 grams of surfactant, and at Polysorbate 80 concentration of 30% w/v, it would require 9 grams of surfactant to solubilize the aprepitant. Unfortunately, such high quantities of surfactant are entirely unsuitable for injectable formulations (e.g., due to hypersensitivity issues related to polysorbate, foam formation during mixing, etc.). Table 2 below illustrates typical solubility data for aprepitant using water alone as solvent.

[3] = Solubility of aprepitant in water or ethanol/water with polysorbate 80; type: physicochemical
Excerpt: The inventors further tested whether co-solvents (i.e., solvents in addition to water) in combination with surfactants would improve solubility of aprepitant. […] In most preferred aspects, a relatively low concentration of nonionic surfactant was chosen in a co-solvent mixture of ethanol and water, and Tables 3-5 below exemplarily illustrate the results of such combination.
More specifically, Table 3 depicts solubility results of aprepitant in water without ethanol at surfactant concentrations noted in the table.
Likewise, Table 4 depicts solubility results of aprepitant in an ethanol/water mixture of (30 vol % EtOH, 70 vol % H2O) at surfactant concentrations noted in the table, and Table 5 depicts solubility results of aprepitant in an ethanol/water mixture of (55 volume % EtOH, 45 vol % H2O) at surfactant concentrations noted in the table.

[4] = Solubility of aprepitant in polysorbate 80 solutions after pre-solubilisation in DMAC; type: physicochemical
Procedure: The inventors also tested whether solubility of aprepitant in aqueous polysorbate 80 solutions could be improved when aprepitant was pre-solubilized in a secondary solvent (e.g., dimethylacetamide (DMAC)). […] Remarkably, when the inventors directly added 200 μL of DMAC solubilized in 10 mL of water to 100 mg aprepitant (i.e., without surfactant), aprepitant was not detected in the solution phase.

[5] = Solubilization of aprepitant by pH (pKa, pH-dependent solubility); type: physicochemical
Procedure: Indeed, to be soluble in aqueous solution, a pH of greater than 11.7 is required. However, a formulation with such a high pH is not suitable for injection. Moreover, the instant such a formulation is diluted in blood, the pH will change to about pH 7.4, which will lead to rapid precipitation of the drug. […] Similar problems were also encountered where aprepitant is dissolved in a water/ethanol solvent mixture where ethanol is at about 50 volume 9 concentration. Here, dilution that would occur at the injection site would lead to precipitation of the drug and so might lead to chemo-embolism.

[6] = cited from earlier work
[7] = cited from earlier work; remark: listed apart in the source
[8] = given orally, nanoparticulate composition; cited from earlier work
[9] = IV infusion; cited from earlier work
[10] = prevention and control of acute and delayed chemotherapy induced nausea and vomiting; cited from earlier work

Aprepitant Conc. ([1]; Ethanol Conc. (v/v) 10, balance water): 0.0001 mg/mL
Aprepitant Conc. ([1]; Ethanol Conc. (v/v) 30, balance water): 0.0232 mg/mL
Aprepitant Conc. ([1]; Ethanol Conc. (v/v) 50, balance water): 1.76 mg/mL
Aprepitant Conc. ([1]; Ethanol Conc. (v/v) 55, balance water): 3.30 mg/mL
Aprepitant Conc. ([1]; Ethanol Conc. (v/v) 60, balance water): 5.1 mg/mL
Aprepitant Conc. ([1]; Ethanol Conc. (v/v) 70, balance water): 12.8 mg/mL
Aprepitant Conc. ([1]; Ethanol Conc. (v/v) 90, balance water): 21.8 mg/mL
Aprepitant Conc. ([2]; Cremophor RH 40 10 % w/v): 1.24 mg/mL
Aprepitant Conc. ([2]; Cremophor RH 40 30 % w/v): 3.51 mg/mL
Aprepitant Conc. ([2]; Cremophor RH 60 10 % w/v): 1.24 mg/mL
Aprepitant Conc. ([2]; Poloxamer 188 30 % w/v): 1.24 mg/mL
Aprepitant Conc. ([2]; Polysorbate 80 10 % w/v): 1.85 mg/mL
Aprepitant Conc. ([2]; Polysorbate 80 30 % w/v): 4.42 mg/mL
Aprepitant Conc. ([3]; 30 vol % EtOH, 70 vol % H2O, Polysorbate 80 11 mg/mL): 0.560 mg/mL
Aprepitant Conc. ([3]; 30 vol % EtOH, 70 vol % H2O, Polysorbate 80 44 mg/mL): 0.793 mg/mL
Aprepitant Conc. ([3]; 30 vol % EtOH, 70 vol % H2O, no Polysorbate 80): 0.0232 mg/mL
Aprepitant Conc. ([3]; 55 volume % EtOH, 45 vol % H2O, Polysorbate 80 11 mg/mL): 1.936 mg/mL
Aprepitant Conc. ([3]; 55 volume % EtOH, 45 vol % H2O, Polysorbate 80 22 mg/mL): 3.309 mg/mL
Aprepitant Conc. ([3]; 55 volume % EtOH, 45 vol % H2O, Polysorbate 80 44 mg/mL): 4.182 mg/mL
Aprepitant Conc. ([3]; 55 volume % EtOH, 45 vol % H2O, no Polysorbate 80): 3.3 mg/mL
Aprepitant Conc. ([3]; water without ethanol, Polysorbate 80 11 mg/mL): 0.179 mg/mL
Aprepitant Conc. ([3]; water without ethanol, Polysorbate 80 22 mg/mL): 0.308 mg/mL
Aprepitant Conc. ([3]; water without ethanol, Polysorbate 80 44 mg/mL): 0.505 mg/mL
aprepitant in the solution phase ([4]; 200 μL DMAC in 10 mL water added directly to 100 mg aprepitant, without surfactant): not detected
Aprepitant Conc. ([4]; Directly Added, Polysorbate 80 10 % w/v): 1.85 mg/mL
Aprepitant Conc. ([4]; Directly Added, Polysorbate 80 30 % w/v): 4.42 mg/mL
Aprepitant Conc. ([4]; Prior Solubilization in DMAC, Polysorbate 80 5 % w/v): 0.85 mg/mL
Aprepitant Conc. ([4]; Prior Solubilization in DMAC, Polysorbate 80 10 % w/v): 2.03 mg/mL
Aprepitant Conc. ([4]; Prior Solubilization in DMAC, Polysorbate 80 15 % w/v): 3.13 mg/mL
Aprepitant Conc. ([4]; Prior Solubilization in DMAC, Polysorbate 80 20 % w/v): 4.35 mg/mL
Aprepitant Conc. ([4]; Prior Solubilization in DMAC, Polysorbate 80 30 % w/v): 4.80 mg/mL
pH required to be soluble in aqueous solution ([5]; aqueous solution): greater than 11.7
solubility in concentrated formic acid ([5]; concentrated formic acid): soluble
behaviour on dilution of formic acid solution ([5]; twofold dilution with aqueous medium): precipitated almost immediately
Structure (SMILES): C[C@@H](O[C@H]1OCCN(Cc2nc(=O)[nH][nH]2)[C@H]1c1ccc(F)cc1)c1cc(C(F)(F)F)cc(C(F)(F)F)c1 [Aprepitant, 5-([(2R,3S)-2((R)-1-[3,5-bis(trifluoromethyl)phenyl]ethoxy)-3-(4-fluoro-phenyl)morpholino]methyl)-1H-1,2,4-triazol-3(2H)-one]
pka [6]: 9.7
solubility (descriptive) ([7]; acetonitrile): slightly soluble
solubility (descriptive) ([7]; ethanol): sparingly soluble
solubility (descriptive) ([7]; isopropyl acetate): sparingly soluble
solubility (descriptive) ([7]; oil (as is well established)): substantially insoluble
solubility (descriptive) ([7]; water (as is well established)): substantially insoluble
solubility (descriptive) ([7]; water): practically insoluble
bioavailability [8]: 60-65%

Structure (SMILES): C[C@@H](O[C@H]1OCCN(Cc2nc(O)n(P(=O)(O)O)n2)[C@H]1c1ccc(F)cc1)c1cc(C(F)(F)F)cc(C(F)(F)F)c1 [Fosaprepitant]
time for conversion to aprepitant [9]: less than 30 minutes
comparison to aprepitant [10]: non-inferiority and bioequivalency
